The record followed here is US20080234262A1 (Wyeth, priority 2007, published 2008).

Assay [1] addresses PI3K (Homo sapiens, UniProt P42336). Kind of assay: Fluorescence polarization assay for PI3K.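 Also: PI3K kinase reaction on PIP2 with ATP, 30-60 min, product sensed by GST-GRP with red probe in fluorescence polarization (mP), controls without enzyme and at zero time.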 It is filed as biochemical. The following applies: PI3Kα; read-out: PI3Kα IC50. For orientation: Fluorescence polarisation rises when a labelled molecule tumbles more slowly, as on binding a larger partner.
The test system of assay [2] is prostate line LNCap. Put plainly: In vitro cell culture growth assay (MTS), LNCap. It is filed as cell-based, human. Particulars: LNCap cells, three days after drug treatment.
The subject of assay [3] is breast line MDA468. Kind of assay: In vitro cell culture growth assay (MTS), MDA468. Particulars: MDA468 cells, three days after drug treatment. It counts as cell-based, human. The method in brief: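 MDA468 or LNCap cells received inhibitors one day after plating and were grown for three days. Viable cell density read by MTS conversion, absorbance 490 nm, expressed as percent of control growth versus vehicle-treated cells on the same plate.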

What is called IC50 is the concentration at which inhibition is half-maximal.

Structures are written as SMILES.

Sequence of PI3K (P42336 whole entry): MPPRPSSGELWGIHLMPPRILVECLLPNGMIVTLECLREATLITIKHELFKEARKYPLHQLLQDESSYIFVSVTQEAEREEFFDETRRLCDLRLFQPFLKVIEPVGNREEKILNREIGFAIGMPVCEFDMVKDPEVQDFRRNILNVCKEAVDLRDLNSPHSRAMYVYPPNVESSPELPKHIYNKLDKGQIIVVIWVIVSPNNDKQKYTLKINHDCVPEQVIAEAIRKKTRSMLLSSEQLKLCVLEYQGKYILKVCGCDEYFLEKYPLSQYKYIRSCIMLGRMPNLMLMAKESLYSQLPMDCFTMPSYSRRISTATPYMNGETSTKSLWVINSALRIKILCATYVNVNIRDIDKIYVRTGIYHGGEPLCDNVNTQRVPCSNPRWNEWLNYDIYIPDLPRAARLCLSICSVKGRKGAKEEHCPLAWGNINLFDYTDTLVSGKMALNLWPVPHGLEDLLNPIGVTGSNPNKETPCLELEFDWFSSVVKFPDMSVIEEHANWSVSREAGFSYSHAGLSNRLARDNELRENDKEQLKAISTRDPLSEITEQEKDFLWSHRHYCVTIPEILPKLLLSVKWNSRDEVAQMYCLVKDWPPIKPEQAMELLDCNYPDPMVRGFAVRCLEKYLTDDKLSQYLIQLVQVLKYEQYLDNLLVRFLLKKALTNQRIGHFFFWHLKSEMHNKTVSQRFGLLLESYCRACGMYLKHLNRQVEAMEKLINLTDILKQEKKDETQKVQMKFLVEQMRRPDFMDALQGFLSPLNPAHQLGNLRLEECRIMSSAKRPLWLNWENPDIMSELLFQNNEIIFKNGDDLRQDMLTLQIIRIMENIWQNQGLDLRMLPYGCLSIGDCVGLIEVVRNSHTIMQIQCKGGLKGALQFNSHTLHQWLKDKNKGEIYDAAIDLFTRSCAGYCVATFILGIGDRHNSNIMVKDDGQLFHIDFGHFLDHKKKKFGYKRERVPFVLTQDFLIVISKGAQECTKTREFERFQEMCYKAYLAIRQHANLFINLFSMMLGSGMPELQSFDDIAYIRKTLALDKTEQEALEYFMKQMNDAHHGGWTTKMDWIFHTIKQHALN
Sequence of PI3K (P27986 whole entry partner): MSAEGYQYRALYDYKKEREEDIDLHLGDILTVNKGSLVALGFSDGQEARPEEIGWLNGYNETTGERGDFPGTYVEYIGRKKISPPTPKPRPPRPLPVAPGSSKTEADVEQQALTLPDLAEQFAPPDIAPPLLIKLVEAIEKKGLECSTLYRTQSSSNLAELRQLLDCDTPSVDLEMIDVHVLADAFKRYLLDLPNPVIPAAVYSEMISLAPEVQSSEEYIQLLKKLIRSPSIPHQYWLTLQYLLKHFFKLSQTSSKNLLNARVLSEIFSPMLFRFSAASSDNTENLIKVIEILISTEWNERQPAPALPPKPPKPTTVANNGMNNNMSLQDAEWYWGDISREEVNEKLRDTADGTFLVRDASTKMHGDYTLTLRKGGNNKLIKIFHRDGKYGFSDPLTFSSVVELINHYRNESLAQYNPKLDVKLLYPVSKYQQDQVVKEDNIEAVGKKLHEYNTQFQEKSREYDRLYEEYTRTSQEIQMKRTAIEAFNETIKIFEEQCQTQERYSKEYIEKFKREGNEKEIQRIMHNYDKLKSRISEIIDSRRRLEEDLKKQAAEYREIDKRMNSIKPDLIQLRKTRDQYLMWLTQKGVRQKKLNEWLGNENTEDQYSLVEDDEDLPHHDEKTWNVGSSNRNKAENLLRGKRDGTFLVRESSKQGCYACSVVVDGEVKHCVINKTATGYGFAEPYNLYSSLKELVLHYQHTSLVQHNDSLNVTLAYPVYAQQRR

Turning to `O=C(C1CC1)N1CCC(n2ncc3c(N4CCOCC4)nc(-c4cccc(O)c4)nc32)CC1` [Example 21], the IC50 turned out to be 98 nM in assay [1]; 500 nM in assay [2] (Homo sapiens, LNCaP, 72 h); 1400 nM in assay [3] (Homo sapiens, 72 h).
For `Nc1ccc(-c2nc(N3CCOCC3)c3cnn(C4CCN(C(=O)c5cccnc5)CC4)c3n2)cn1` [Example 214, 5-{4-morpholin-4-yl-1-[1-(pyridin-3-ylcarbonyl)piperidin-4-yl]-1H-pyrazolo[3,4-d]pyrimidin-6-yl}pyridin-2-amine], the IC50 in assay [1] is 109 nM; in assay [2] (Homo sapiens, LNCaP, 72 h), 570 nM; in assay [3] (Homo sapiens, 72 h), 1500 nM.
For `O=C1CCC(n2ncc3c(N4CCOCC4)nc(-c4ccc5[nH]ccc5c4)nc32)CC1` [Compound 143, 4-[6-(1H-indol-5-yl)-4-morpholin-4-yl-1H-pyrazolo[3,4-d]pyrimidin-1-yl]cyclohexanone] the same measures were 703 nM, 180 nM and 1700 nM.
With `CNC(=O)Nc1ccc(-c2nc(N3CCOCC3)c3cnn(C4CCN(C(=O)c5cccnc5C)CC4)c3n2)cc1` [Compound 573, 1-methyl-3-[4-(1-{1-[(2-methylpyridin-3-yl)carbonyl]piperidin-4-yl}-4-morpholin-4-yl-1H-pyrazolo[3,4-d]pyrimidin-6-yl)phenyl]urea], the IC50 in assay [1] came out at 216 nM; in assay [2] (Homo sapiens, LNCaP, 72 h), 250 nM; in assay [3] (Homo sapiens, 72 h), 900 nM.
As for `C=COC(=O)N1CCC(n2ncc3c(N4CCOCC4)nc(-c4ccc(NC(=O)NC)cc4)nc32)CC1` [Compound 753, vinyl 4-(6-{4-[(methylcarbamoyl)amino]phenyl}-4-morpholin-4-yl-1H-pyrazolo[3,4-d]pyrimidin-1-yl)piperidine-1-carboxylate], the IC50 in assay [1] is 100 nM; in assay [2] (Homo sapiens, LNCaP, 72 h), 47 nM; in assay [3] (Homo sapiens, 72 h), 110 nM.
Consider `CNC(=NC#N)Nc1ccc(-c2nc(N3CCOCC3)c3cnn(C4CCN(Cc5cccnc5)CC4)c3n2)cc1` [Example 407, 2-cyano-1-methyl-3-(4-{4-morpholin-4-yl-1-[1-(pyridin-3-ylmethyl)piperidin-4-yl]-1H-pyrazolo[3,4-d]pyrimidin-6-yl}phenyl)guanidine], for which the IC50 in assay [1] came to 774 nM; in assay [2] (Homo sapiens, LNCaP, 72 h), 1700 nM; in assay [3] (Homo sapiens, 72 h), 3800 nM.
In the case of `O=C(NO)Nc1ccc(-c2nc(N3CCOCC3)c3cnn(C4CCN(Cc5cccnc5)CC4)c3n2)cc1` [Compound 562, 1-hydroxy-3-(4-{4-morpholin-4-yl-1-[1-(pyridin-3-ylmethyl)piperidin-4-yl]-1H-pyrazolo[3,4-d]pyrimidin-6-yl}phenyl)urea], the IC50 in assay [1] came out at 259 nM; in assay [2] (Homo sapiens, LNCaP, 72 h), 1100 nM; in assay [3] (Homo sapiens, 72 h) it was 1500 nM.
As for `CNC(=O)Nc1ccc(-c2nc(N3CCOCC3)c3cnn(C4CCN(C(=O)OCCF)CC4)c3n2)cc1` [Compound 878, 2-fluoroethyl 4-(6-{4-[(methylcarbamoyl)amino]phenyl}-4-morpholin-4-yl-1H-pyrazolo[3,4-d]pyrimidin-1-yl)piperidine-1-carboxylate], the IC50 in assay [1] was found to be 54 nM; in assay [2] (Homo sapiens, LNCaP, 72 h) it was 40 nM; in assay [3] (Homo sapiens, 72 h), 120 nM.
For the compound `NCc1ccc(-c2nc(N3CCOCC3)c3cnn(-c4ccccc4)c3n2)cc1` [Compound 146], the IC50 worked out at 457 nM in assay [1]; 1700 nM in assay [2] (Homo sapiens, LNCaP, 72 h); 4000 nM in assay [3] (Homo sapiens, 72 h).
For `CN(C)c1ccc(CC(=O)Nc2ccc(-c3nc(N4CCOCC4)c4cnn(C5CCCCO5)c4n3)cc2)cc1` (stereo not drawn) [Compound 276, 2-[4-(dimethylamino)phenyl]-N-{4-[4-morpholin-4-yl-1-(tetrahydro-2H-pyran-2-yl)-1H-pyrazolo[3,4-d]pyrimidin-6-yl]phenyl}acetamide] the same measures were 6470 nM, 11000 nM and 60000 nM.
Regarding `CCOC(=O)N1CCC(n2ncc3c(N4CCOC[C@H]4C)nc(-c4ccc(NC(=O)Nc5cccnc5)cc4)nc32)CC1` [Compound 892, ethyl 4-(4-[(3R)-3-methylmorpholin-4-yl]-6-{4-[(pyridin-3-ylcarbamoyl)amino]phenyl}-1H-pyrazolo[3,4-d]pyrimidin-1-yl)piperidine-1-carboxylate], the IC50 worked out at 453 nM in assay [1]; 0.8 nM in assay [2] (Homo sapiens, LNCaP, 72 h); 70 nM in assay [3] (Homo sapiens, 72 h).
Turning to `O=C(c1ncccc1O)N1CCC(n2ncc3c(N4CCOCC4)nc(-c4ccc5[nH]ccc5c4)nc32)CC1` [Example 198, 2-({4-[6-(1H-indol-5-yl)-4-morpholin-4-yl-1H-pyrazolo[3,4-d]pyrimidin-1-yl]piperidin-1-yl}carbonyl)pyridin-3-ol], the IC50 in assay [1] was determined as 1650 nM; in assay [2] (Homo sapiens, LNCaP, 72 h) it was 700 nM; in assay [3] (Homo sapiens, 72 h), 4000 nM.
On to `CNC(=O)Nc1ccc(-c2nc(N3CCOCC3)c3cnn([C@H]4CCCNC4)c3n2)cc1` [Compound 873, 1-methyl-3-(4-{4-morpholin-4-yl-1-[(3S)-piperidin-3-yl]-1H-pyrazolo[3,4-d]pyrimidin-6-yl}phenyl)urea], for which the IC50 came out at 74 nM in assay [1]; 410 nM in assay [2] (Homo sapiens, LNCaP, 72 h); 730 nM in assay [3] (Homo sapiens, 72 h).
For `O=C(Nc1ccc(-c2nc(N3CCOCC3)c3cnn(C4CCN(C(=O)c5cccnc5)CC4)c3n2)cc1)Nc1cccnc1` [Compound 547, 1-(4-{4-morpholin-4-yl-1-[1-(pyridin-3-ylcarbonyl)piperidin-4-yl]-1H-pyrazolo[3,4-d]pyrimidin-6-yl}phenyl)-3-pyridin-3-ylurea], in that order: 32 nM, 200 nM and 27 nM.
For `CCNC(=O)Nc1ccc(-c2nc(N3CCOCC3)c3cnn(C4CCN(CCCCO)CC4)c3n2)cc1` [Compound 745, 1-ethyl-3-(4-{1-[1-(4-hydroxybutyl)piperidin-4-yl]-4-morpholin-4-yl-1H-pyrazolo[3,4-d]pyrimidin-6-yl}phenyl)urea], in that order: 550 nM, 1300 nM and 2900 nM.
Take `O=C(Nc1cccnc1)N1CCC(n2ncc3c(N4CCOCC4)nc(-c4ccc5[nH]ccc5c4)nc32)CC1` [Compound 132]: the IC50 in assay [1] came out at 311 nM; in assay [2] (Homo sapiens, LNCaP, 72 h), 300 nM; in assay [3] (Homo sapiens, 72 h) it was 1200 nM.
As for `O=C(Nc1ccc(-c2nc(N3CCOCC3)c3cnn(C4CCN(C(=O)c5cccnc5)CC4)c3n2)cc1)Nc1ccsc1` [Example 414, 1-(4-{4-morpholin-4-yl-1-[1-(pyridin-3-ylcarbonyl)piperidin-4-yl]-1H-pyrazolo[3,4-d]pyrimidin-6-yl}phenyl)-3-(3-thienyl)urea], the IC50 in assay [1] came to 18 nM; in assay [2] (Homo sapiens, LNCaP, 72 h) it was 40 nM; in assay [3] (Homo sapiens, 72 h) it was 100 nM.
Turning to `O=C(CCO)Nc1ccc(-c2nc(N3CCOCC3)c3cnn(-c4ccccc4)c3n2)cc1` [Compound 139], the IC50 in assay [1] stood at 134 nM; in assay [2] (Homo sapiens, LNCaP, 72 h), 1500 nM; in assay [3] (Homo sapiens, 72 h) it was 60000 nM.
In the case of `CNC(=O)Nc1ccc(-c2nc(N3CCOCC3)c3cn[nH]c3n2)cc1Cl` [Compound 940, 1-[2-chloro-4-(4-morpholin-4-yl-1H-pyrazolo[3,4-d]pyrimidin-6-yl)phenyl]-3-methylurea], the IC50 in assay [1] worked out at 401 nM; in assay [2] (Homo sapiens, LNCaP, 72 h) it was 1950 nM; in assay [3] (Homo sapiens, 72 h) it was 6000 nM.
Turning to `c1ccc(-n2ncc3c(N4CCOCC4)nc(-c4ccc(N5CCOCC5)nc4)nc32)cc1` [Compound 131], the IC50 is 1100 nM in assay [1]; 60000 nM in assay [2] (Homo sapiens, LNCaP, 72 h); 60000 nM in assay [3] (Homo sapiens, 72 h).
For the compound `O=C(N1CCCC1)N1CCC(n2ncc3c(N4CCOCC4)nc(-c4ccc5[nH]ccc5c4)nc32)CC1` [Compound 123], the IC50 in assay [1] is 1300 nM; in assay [2] (Homo sapiens, LNCaP, 72 h) it was 450 nM; in assay [3] (Homo sapiens, 72 h), 1800 nM.
As for `CNC(=O)Nc1ccc(-c2nc(N3CCOCC3)c3cnn(C4CCN(C(=O)C(C)C)CC4)c3n2)cc1` [Compound 719, 1-{4-[1-(1-isobutyrylpiperidin-4-yl)-4-morpholin-4-yl-1H-pyrazolo[3,4-d]pyrimidin-6-yl]phenyl}-3-methylurea], the IC50 in assay [1] amounted to 148 nM; in assay [2] it was 150 nM; in assay [3], 250 nM.
On to `CNC(=O)Nc1ccc(-c2nc(N3CCOCC3)c3cnn(C4CCN(C(=O)OCCN(C)C)CC4)c3n2)cc1` [Compound 803, 2-(dimethylamino)ethyl 4-(6-{4-[(methylcarbamoyl)amino]phenyl}-4-morpholin-4-yl-1H-pyrazolo[3,4-d]pyrimidin-1-yl)piperidine-1-carboxylate], for which the IC50 was determined as 173 nM in assay [1]; 1000 nM in assay [2] (Homo sapiens, LNCaP, 72 h); 1000 nM in assay [3] (Homo sapiens, 72 h).
On to `c1ccc(CN2CCC(n3ncc4c(N5CCOCC5)nc(-c5cnc6ccccc6c5)nc43)CC2)cc1` [Compound 230, 3-[1-(1-benzylpiperidin-4-yl)-4-morpholin-4-yl-1H-pyrazolo[3,4-d]pyrimidin-6-yl]quinoline], for which the IC50 came out at 6000 nM in assay [1]; 60000 nM in assay [2] (Homo sapiens, LNCaP, 72 h); 22000 nM in assay [3] (Homo sapiens, 72 h).
As for `CCOC(=O)N1CCC(n2ncc3c(N4CCOC[C@@H]4C)nc(-c4ccc(NC(=O)Nc5ccncc5)cc4)nc32)CC1` [Compound 898, ethyl 4-(4-[(3S)-3-methylmorpholin-4-yl]-6-{4-[(pyridin-4-ylcarbamoyl)amino]phenyl}-1H-pyrazolo[3,4-d]pyrimidin-1-yl)piperidine-1-carboxylate], the IC50 in assay [1] came to 18 nM; in assay [2] (Homo sapiens, LNCaP, 72 h), 40 nM; in assay [3] (Homo sapiens, 72 h) it was 380 nM.
For the compound `C=CC(=O)Nc1ccc(-c2nc(N3CCOCC3)c3cn[nH]c3n2)cc1` [Compound 280, N-[4-(4-morpholin-4-yl-1H-pyrazolo[3,4-d]pyrimidin-6-yl)phenyl]acrylamide], the IC50 in assay [1] turned out to be 601 nM; in assay [2] (Homo sapiens, LNCaP, 72 h), 3400 nM; in assay [3] (Homo sapiens, 72 h), 7000 nM.
